Assay results published in PMC9518264, “Design and synthesis of novel quinazolinone-based derivatives as EGFR inhibitors with antitumor activity” (Journal of Enzyme Inhibition and Medicinal Chemistry, 2022).

Assays:
CCRF-CEM = test: cells; type: cell-based
K-562 = test: cells; type: cell-based
SW-620 = test: cells; type: cell-based
SF-268 = test: cells; type: cell-based
SF-295 = test: cells; type: cell-based
MALME-3M = test: cells; type: cell-based
M14 = test: cells; type: cell-based
SK-MEL-5 = test: cells; type: cell-based
OVCAR-8 = test: cells; type: cell-based
ACHN = test: cells; type: cell-based
CAKI-1 = test: cells; type: cell-based
RXF 393 = test: cells; type: cell-based
SN12C = test: cells; type: cell-based
UO-31 = test: cells; type: cell-based
EGFR = EGFR (Homo sapiens, UniProt P00533); test: In vitro EGFR kinase inhibitory assay (Kinase-Glo Max luminescence kit); type: biochemical
HS 578T cells [1] = test: Annexin V/PI dual staining apoptosis assay; type: cell-based, human
caspase-3 = test: Caspase-3 activation (ELISA) in breast HS 578T cancer cell line; type: cell-based, human
Procedure: Apoptosis is triggered by the activation of caspases, particularly caspase-3, which is an […] caspase responsible for apoptosis. Therefore, the induction of apoptosis by compound 6d was examined by the evaluation of caspase-3 activation in breast HS 578T cancer cell line. The effect of erlotinib as well as untreated cell line was used as positive and negative control, respectively. […] . […]
incubated for 15 minutes in the dark at room temperature. FacsCalibur was used to assess cell fluorescence after incubation (BD Biosciences, USA). The results were represented using dot-plot graphs.
1.1.5. Caspase-3 enzyme assay
The level of the apoptotic marker caspase-3 was measured using Invitrogen ELISA Kit Catalog # KHO1091. The procedure of the used kit was performed according to the manufacturer’s instructions. Let all components to reach room temperature before use. Gently combine all liquid reagents prior to use. Add 100 μL of the standard diluent buffer to the zero standard wells. Add 100 μL of standards and controls or diluted samples to the appropriate microtiter wells. Incubate for 2 h at room temperature. Pipette 100 μL of Caspase-3 (Active) detection antibody solution into each well. […] Read the absorbance of each well at 450 nm. Read the plate within 2 h after adding the stop solution. […] Read the concentrations for unknown samples and controls from the standard curve.

HS 578T cells [2] = test: Cell cycle analysis by DNA flow cytometry (propidium iodide)
Procedure: Flow cytometry was used to analyse the cell cycle using ab139418 propidium iodide flow cytometry kit/BD (Abcam, Cambridge, UK), as directed by the manufacturer guidelines.
The cells were washed twice with ice-cold phosphate buffer saline (PBS) and collected by centrifugation.
(v/v) ethanol, washed with PBS, and re-suspended with 0.1 mg/mL RNase to digest cellular RNA and thus minimize stained RNA in the background. The cells were next stained with PI, a fluorescent molecule that may bind to nucleic acid, at a concentration of 40 mg/mL. In cells, PI attaches to DNA in proportion to its amount. Because the DNA content of cells at different stages of the cell cycle differs, the fluorescence intensity can be used to assess the stage of cell growth. FacsCalibur (BD Biosciences, USA) was used to estimate cell fluorescence, which was then examined using Cell-Quest software (Becton Dickinson).

[3] = Homo sapiens, 5 doses, read-out: LC50 (the source's name)
[4] = Homo sapiens, read-out: growth inhibition % (GI%)
[5] = 24 h at 2.17 µM, vs untreated control

Sequence of EGFR (P00533 669-1210): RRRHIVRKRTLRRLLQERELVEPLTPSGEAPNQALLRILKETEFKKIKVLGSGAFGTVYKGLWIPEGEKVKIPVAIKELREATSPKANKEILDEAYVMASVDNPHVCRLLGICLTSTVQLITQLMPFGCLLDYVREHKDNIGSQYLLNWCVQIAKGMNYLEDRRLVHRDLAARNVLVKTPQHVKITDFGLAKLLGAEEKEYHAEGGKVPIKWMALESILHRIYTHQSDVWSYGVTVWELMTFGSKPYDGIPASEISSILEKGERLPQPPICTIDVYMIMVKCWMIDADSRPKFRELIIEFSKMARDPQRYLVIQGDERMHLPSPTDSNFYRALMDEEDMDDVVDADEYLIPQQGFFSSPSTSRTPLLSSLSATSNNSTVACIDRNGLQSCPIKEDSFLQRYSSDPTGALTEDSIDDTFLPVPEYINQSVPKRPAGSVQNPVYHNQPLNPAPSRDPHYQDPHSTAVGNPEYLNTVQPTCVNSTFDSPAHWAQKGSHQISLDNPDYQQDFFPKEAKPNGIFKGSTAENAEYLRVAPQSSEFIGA

SMILES: O=C(CSc1nc2ccccc2c(=O)n1-c1ccc(Cl)cc1)NN=Cc1ccc(Oc2ccc(Cl)cc2)cc1 [6d, N'-(4–(4-chlorophenoxy)benzylidene)-2-((3–(4-chlorophenyl)-4-oxo-3,4-dihydroquinazolin-2-yl)thio)acetohydrazide]
- TGI (CCRF-CEM; 5 doses): 48.5 µM
- GI50 (CCRF-CEM; Homo sapiens): 3.09 µM
- CC50 (CCRF-CEM; [3]): > 100 µM
- inhibition at 10 µM (CCRF-CEM; [4]): > 100%
- GI50 (K-562; Homo sapiens, K562): 4.15 µM
- inhibition at 10 µM (K-562; Homo sapiens, K562, read-out: growth inhibition % (GI%)): 77%
- CC50 (K-562; Homo sapiens, K562, K-562, 5 doses, read-out: LC50 (the source's name)): > 100 µM
- TGI (K-562; K-562, 5 doses): 20.2 µM
- GI50 (SW-620; Homo sapiens, SW-620): 1.81 µM
- inhibition at 10 µM (SW-620; Homo sapiens, SW-620, read-out: growth inhibition % (GI%)): 97.4%
- CC50 (SW-620; Homo sapiens, SW-620, 5 doses, read-out: LC50 (the source's name)): 42.4 µM
- TGI (SW-620; SW-620, 5 doses): 7.84 µM
- GI50 (SF-268; Homo sapiens, SF-268): 3.85 µM
- inhibition at 10 µM (SF-268; Homo sapiens, SF-268, read-out: growth inhibition % (GI%)): 44.2%
- LC50 (SF-268; Homo sapiens, SF-268, 5 doses): > 100 µM
- TGI (SF-268; SF-268, 5 doses): 23.9 µM
- GI50 (SF-295; Homo sapiens, SF-295): 3.61 µM
- inhibition at 10 µM (SF-295; Homo sapiens, SF-295, read-out: growth inhibition % (GI%)): 35.3%
- CC50 (SF-295; Homo sapiens, SF-295, 5 doses, read-out: LC50 (the source's name)): 36.4 µM
- TGI (SF-295; SF-295, 5 doses): 13.3 µM
- GI50 (MALME-3M; Homo sapiens, Malme-3M): 1.38 µM
- inhibition at 10 µM (MALME-3M; Homo sapiens, Malme-3M, read-out: growth inhibition % (GI%)): > 100%
- CC50 (MALME-3M; Homo sapiens, MALME-3M, 5 doses, read-out: LC50 (the source's name)): 5.55 µM
- TGI (MALME-3M; MALME-3M, 5 doses): 2.77 µM
- GI50 (M14; Homo sapiens, M14): 1.58 µM
- inhibition at 10 µM (M14; Homo sapiens, M14, read-out: growth inhibition % (GI%)): > 100%
- CC50 (M14; Homo sapiens, M14, 5 doses, read-out: LC50 (the source's name)): 7.58 µM
- TGI (M14; M14, 5 doses): 3.47 µM
- GI50 (SK-MEL-5; Homo sapiens, SK-MEL-5): 1.75 µM
- inhibition at 10 µM (SK-MEL-5; Homo sapiens, SK-MEL-5, read-out: growth inhibition % (GI%)): 89.1%
- CC50 (SK-MEL-5; Homo sapiens, SK-MEL-5, 5 doses, read-out: LC50 (the source's name)): 7.07 µM
- TGI (SK-MEL-5; SK-MEL-5, 5 doses): 3.51 µM
- GI50 (OVCAR-8; Homo sapiens, OVCAR-8): 2.41 µM
- inhibition at 10 µM (OVCAR-8; Homo sapiens, OVCAR-8, read-out: growth inhibition % (GI%)): 86.6%
- CC50 (OVCAR-8; Homo sapiens, OVCAR-8, 5 doses, read-out: LC50 (the source's name)): > 100 µM
- TGI (OVCAR-8; OVCAR-8, 5 doses): 6.56 µM
- TGI (ACHN; 5 doses): 15.2 µM
- GI50 (ACHN; Homo sapiens): 4.36 µM
- CC50 (ACHN; [3]): 39 µM
- inhibition at 10 µM (ACHN; [4]): 36.5%
- TGI (CAKI-1; CAKI-1, 5 doses): 12.0 µM
- GI50 (CAKI-1; Homo sapiens, CAKI-1): 3.06 µM
- inhibition at 10 µM (CAKI-1; Homo sapiens, CAKI-1, read-out: growth inhibition % (GI%)): 67%
- CC50 (CAKI-1; Homo sapiens, CAKI-1, 5 doses, read-out: LC50 (the source's name)): 35.4 µM
- GI50 (RXF 393; Homo sapiens, RXF 393): 1.7 µM
- inhibition at 10 µM (RXF 393; Homo sapiens, RXF 393, read-out: growth inhibition % (GI%)): > 100%
- CC50 (RXF 393; Homo sapiens, RXF 393, 5 doses, read-out: LC50 (the source's name)): 5.81 µM
- TGI (RXF 393; RXF 393, 5 doses): 3.14 µM
- TGI (SN12C; 5 doses): 4.14 µM
- GI50 (SN12C; Homo sapiens): 1.74 µM
- CC50 (SN12C; [3]): 9.84 µM
- inhibition at 10 µM (SN12C; [4]): 54.8%
- GI50 (UO-31; Homo sapiens, UO-31): 7.47 µM
- inhibition at 10 µM (UO-31; Homo sapiens, UO-31, read-out: growth inhibition % (GI%)): < 15%
- CC50 (UO-31; Homo sapiens, UO-31, 5 doses, read-out: LC50 (the source's name)): 47.1 µM
- TGI (UO-31; UO-31, 5 doses): 21.1 µM
- IC50 (EGFR): 0.069 ± 0.004 µM
- increase in total apoptosis compared to the control (HS 578T cells [1]): 16.74 fold
- Apoptosis Early (HS 578T cells [1]; IC50 concentration, 24 h): 19.24%
- Apoptosis Late (HS 578T cells [1]; IC50 concentration, 24 h): 13.45%
- Apoptosis Total (HS 578T cells [1]; IC50 concentration, 24 h): 39.02%
- Necrosis (HS 578T cells [1]; IC50 concentration, 24 h): 6.33%
- increase of caspase-3 level compared to negative control (caspase-3): 10.75 fold
- phase of cell cycle arrest (HS 578T cells [2]): G1/S phase
- increase of cell population in the pre-G1 phase (HS 578T cells [2]; 24 h at 2.17 µM, vs control): 16.74 fold
- decrease in the cell population at the G2/M phase (HS 578T cells [2]; [5]): 52%
- increase of proportion of cells in G0-G1 phase (HS 578T cells [2]; [5]): 1.12 fold
- increase of proportion of cells in S phase (HS 578T cells [2]; [5]): 1.12 fold
